#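 In this assay, cells in 96-well plates receive the compound at five concentrations for 48 hours. Endpoints are linearly interpolated between the surrounding concentrations. TGI marks complete inhibition of growth.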
# How the values were obtained:
# Assay in all cases: NCI tumour cell line growth inhibition, 48 h
# [1] = tested on: K-562 leukemia
# [2] = tested on: SF-268 CNS
# [3] = tested on: COLO 205 colon
# [4] = tested on: OVCAR-3 ovarian
# [5] = tested on: SF-295 CNS
# [6] = tested on: M19-MEL melanoma
# [7] = tested on: A498 renal
# [8] = tested on: CAKI-1 renal
# [9] = tested on: KM20L2 colon
# [10] = tested on: A549 NSCLC
# [11] = tested on: SW-620 colon
# [12] = tested on: EKVX NSCLC
# [13] = tested on: 786-0 renal
# [14] = tested on: KM12 colon
# [15] = tested on: RPMI-8226 leukemia
# [16] = tested on: DMS 273 small cell lung
# [17] = tested on: SF-539 CNS
# [18] = tested on: HOP-62 NSCLC
# [19] = tested on: HCT-15 colon
# [20] = tested on: SK-MEL-28 melanoma
# [21] = tested on: HCC-2998 colon
# [22] = tested on: HL-60(TB) leukemia
# [23] = tested on: MALME-3M melanoma
# [24] = tested on: OVCAR-4 ovarian
# [25] = tested on: UACC-257 melanoma
# [26] = tested on: OVCAR-8 ovarian
# [27] = tested on: NCI-H226 lung
# [28] = tested on: SR leukemia
# [29] = tested on: U251 CNS
# [30] = tested on: LOX IMVI melanoma
# [31] = tested on: HOP-92 NSCLC
# [32] = tested on: OVCAR-5 ovarian
# [33] = tested on: SNB-75 CNS
# [34] = tested on: ACHN renal
# [35] = tested on: TK-10 renal
# [36] = tested on: SN12C renal
# [37] = tested on: UACC-62 melanoma
# [38] = tested on: NCI-H522 lung
# [39] = tested on: SK-OV-3 ovarian
# [40] = tested on: MOLT-4 leukemia
# [41] = tested on: DMS 114 small cell lung
# [42] = tested on: CCRF-CEM leukemia
# [43] = tested on: SNB-19 CNS
# [44] = tested on: HCT-116 colon
# [45] = tested on: RXF 393 renal
# [46] = tested on: NCI-H23 lung
# [47] = tested on: UO-31 renal
# [48] = tested on: SK-MEL-5 melanoma
# [49] = tested on: HT29 colon
# [50] = tested on: SK-MEL-2 melanoma
# [51] = tested on: NCI-H460 lung
# [52] = tested on: M14 melanoma
# [53] = tested on: NCI/ADR-RES ovarian
# [54] = tested on: MDA-MB-231 breast
# [55] = tested on: DU-145 prostate
# [56] = tested on: BT-549 breast
# [57] = tested on: MDA-MB-435
# [58] = tested on: PC-3 prostate
# [59] = tested on: IGROV1 ovarian
# [60] = tested on: MDA-N
# [61] = tested on: HS 578T breast
# [62] = tested on: MCF7 breast
# [63] = tested on: T-47D breast
compound,measurement,setting,value
COc1ccccc1C=NC12CC3CC(CC(C3)C1)C2,TGI,[1],> 100 µM
same,TGI,[2],> 100 µM
same,TGI,[3],> 100 µM
same,TGI,[4],> 100 µM
same,TGI,[5],> 100 µM
same,TGI,[6],> 100 µM
same,TGI,[7],> 100 µM
same,TGI,[8],> 100 µM
same,TGI,[9],> 100 µM
same,TGI,[10],> 100 µM
same,TGI,[11],> 100 µM
same,TGI,[12],> 100 µM
same,TGI,[13],> 100 µM
same,TGI,[14],> 100 µM
same,TGI,[15],> 100 µM
same,TGI,[16],> 100 µM
same,TGI,[17],> 100 µM
same,TGI,[18],> 100 µM
same,TGI,[19],> 100 µM
same,TGI,[20],> 100 µM
same,TGI,[21],> 100 µM
same,TGI,[22],> 100 µM
same,TGI,[23],> 100 µM
same,TGI,[24],> 100 µM
same,TGI,[25],> 100 µM
same,TGI,[26],> 100 µM
same,TGI,[27],> 10 µM
same,TGI,[28],> 100 µM
same,TGI,[29],> 100 µM
same,TGI,[30],> 100 µM
same,TGI,[31],> 100 µM
same,TGI,[32],> 100 µM
same,TGI,[33],> 100 µM
same,TGI,[34],> 100 µM
same,TGI,[35],> 100 µM
same,TGI,[36],> 100 µM
same,TGI,[37],> 100 µM
same,TGI,[38],> 100 µM
same,TGI,[39],> 100 µM
same,TGI,[40],> 100 µM
same,TGI,[41],> 10 µM
same,TGI,[42],> 100 µM
same,TGI,[43],> 100 µM
same,TGI,[44],> 10 µM
same,TGI,[45],> 100 µM
same,TGI,[46],> 100 µM
same,TGI,[47],> 100 µM
same,TGI,[48],> 100 µM
same,TGI,[49],> 100 µM
same,TGI,[50],> 100 µM
same,TGI,[51],> 100 µM
same,TGI,[52],> 100 µM
CC(=O)O[C@@H]1C(C2CCCCC2)C=[N+]([O-])O[C@@H]1OC1CCCC1(c1ccccc1)c1ccccc1 (stereo partly specified),TGI,[1],> 40.2 µM
same,TGI,[2],17.6 µM
same,TGI,[3],17.7 µM
same,TGI,[4],10.3 µM
same,TGI,[5],27.4 µM
same,TGI,[53],29.3 µM
same,TGI,[7],17.1 µM
same,TGI,[8],10.4 µM
same,TGI,[54],27.1 µM
same,TGI,[10],28.5 µM
same,TGI,[11],4.63 µM
same,TGI,[12],30.2 µM
same,TGI,[13],16.8 µM
same,TGI,[14],22.9 µM
same,TGI,[15],7.91 µM
same,TGI,[55],25.3 µM
same,TGI,[17],14.2 µM
same,TGI,[18],29.3 µM
same,TGI,[19],4.21 µM
same,TGI,[20],5.84 µM
same,TGI,[21],26 µM
same,TGI,[56],24.8 µM
same,TGI,[22],3.4 µM
same,TGI,[23],9.05 µM
same,TGI,[24],21.1 µM
same,TGI,[25],36.5 µM
same,TGI,[57],9.04 µM
same,TGI,[58],23 µM
same,TGI,[26],4.22 µM
same,TGI,[27],32.1 µM
same,TGI,[59],8.83 µM
same,TGI,[28],> 22.8 µM
same,TGI,[29],26.1 µM
same,TGI,[30],3.48 µM
same,TGI,[31],23.1 µM
same,TGI,[32],30.7 µM
same,TGI,[33],17.6 µM
same,TGI,[60],12.2 µM
same,TGI,[34],4.84 µM
same,TGI,[35],28.3 µM
same,TGI,[36],21.2 µM
same,TGI,[37],19.4 µM
same,TGI,[38],4.1 µM
same,TGI,[39],29.1 µM
same,TGI,[40],> 27.6 µM
same,TGI,[42],7.49 µM
same,TGI,[43],30.5 µM
same,TGI,[44],15.5 µM
same,TGI,[61],27.8 µM
same,TGI,[45],6.82 µM
same,TGI,[62],12 µM
same,TGI,[46],26.2 µM
same,TGI,[47],20.4 µM
same,TGI,[63],10.1 µM
same,TGI,[48],28 µM
same,TGI,[49],5.65 µM
same,TGI,[50],27.8 µM
same,TGI,[51],30 µM
same,TGI,[52],12.1 µM

# Reference: PubChem BioAssay (NCI)
